Data published in US20170226139A1, “CRYSTALLINE SALTS OF (Z)-O-OCTADEC-9-EN-1-YL O,O-DIHYDROGEN PHOSPHOROTHIOATE” (priority 2013, published 2017).
Like-named read-outs stand apart in the source and are kept apart here.

How the values were obtained:
[1] = molecular target: T1, Human LPA1 (Homo sapiens, UniProt Q92633); assay: Calcium-mobilization assay (FURA-2), human LPA1 transfected cells; assay type: cell-based; conditions: for EC50: EC50 [nM], mean
T1 construct: expressed in transfected cells; host or cells: mouse embryonic fibroblasts (MEF)
Procedure: We investigated structure-activity relationships across species, LPAR subtypes and between Rx100 and two known process impurities encountered in manufacture: Rx103 (‘E’ isomer) and Rx200 (oleyl phosphate and impurity, which can be an Rx100 degradant along with oleyl alcohol). Rx100, Rx103, Rx200 and native LPA were investigated at different human LPAR subtypes. In addition, the activity of these compounds was evaluated at LPA2 receptors from the rhesus, rat and mouse species. Human LPA1/2/3 subtypes were transfected into mouse embryonic fibroblasts (MEF) or rat hepatoma cells (RH7777)—both of which are normally non-responsive or null to LPA. Human LPA4 was transfected into Chinese hamster ovary (CHO) cells and LPA5 into the B103 neuroblastoma cell line. […] The B103 rat neuroblastoma cell line is endogenously nonresponsive to LPA but expresses heterologous LPA5 receptors well. […] LPAR activation elicits a G-protein-mediated transient rise in intracellular calcium level that is proportional to the concentration of LPA applied. The intracellular calcium level was quantified by the calcium-selective fluorescent indicator FURA-2 (e.g., increased intracellular calcium surge=increased fluorescence).

[2] = test system: Beagle dogs; assay: Single-dose subcutaneous toxicity in dogs; assay type: in vivo
Excerpt: One group of one male and one female Beagle dogs received single escalating subcutaneous doses of Rx100.Lysine at 10 and 1 (female)/1.52 (male) mg/kg. […] Parameters evaluated included clinical signs, body weight, and gross pathology. The male and female dog survived until scheduled necropsy on Day 15. Administration of Rx100 had no effect on body weight or general health of the animals. Noteworthy clinical observations were confined to skin and behavior effects. Both animals scratched at the dose site, likely contributing to observations of redness at the dose site. Swelling and a thickened/raised area were also observed during the observation period. Clinical observations were sufficient to warrant the injection of diphenhydramine. […] Following injection of the L-lysine component of the formulation at an independent site, redness, scratching, or swelling was not seen.

[3] = test system: S. typhimurium strains TA98, TA100, TA1535 and TA1537 and E. coli strain WP2uvrA; assay type: cell-based
Procedure: An Ames assay was conducted on Rx100.Lysine using S. typhimurium strains TA98, TA100, TA1535 and TA1537 and E. coli strain WP2uvrA. Two trials were performed. […] See Tables 38A and 38B, respectively. In the second trial, doses ranged from 0.160 to 16 μg/plate with some strains tested with activation and others without activation.

[4] = test system: bone marrow cells (micronucleated PCEs); assay: In vivo rat bone marrow micronucleus assay; design: species or system Sprague-Dawley rats; conditions: 500 mg/kg single subcutaneous dose

T1 sequence (Q92633 whole entry): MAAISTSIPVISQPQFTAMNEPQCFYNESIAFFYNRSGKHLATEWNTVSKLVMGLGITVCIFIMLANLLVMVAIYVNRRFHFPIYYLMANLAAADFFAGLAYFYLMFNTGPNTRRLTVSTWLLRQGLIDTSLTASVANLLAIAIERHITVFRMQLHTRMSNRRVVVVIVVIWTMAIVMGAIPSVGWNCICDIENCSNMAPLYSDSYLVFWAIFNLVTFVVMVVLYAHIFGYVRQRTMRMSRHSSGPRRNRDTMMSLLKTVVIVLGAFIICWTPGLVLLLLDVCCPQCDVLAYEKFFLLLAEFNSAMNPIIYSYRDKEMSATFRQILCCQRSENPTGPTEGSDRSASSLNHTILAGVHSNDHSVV

CCCCCCCC/C=C\CCCCCCCCOP(O)(O)=S [Rx100, (Z)—O-octadec-9-en-1-yl O,O-dihydrogen phosphorothioate]
EC50 ([1]; LPA1 DKO MEF, human): 273 nM | EC50 ([1]; LPA1 RH7777, human): 1030 nM | Emax ([1]; RH7777, read-out: Emax (% of LPA)): 69% | Emax ([1]; read-out: Emax (% of LPA)): 70%

CCCCCCCC/C=C\CCCCCCCCOP(O)(O)=S [Rx100.L-Lysine, (Z)—O-octadec-9-en-1-yl O,O-dihydrogen phosphorothioate]
clinical observations at dose sites ([2]; 1 mg/kg dose): persistent scratching and swelling at dose sites | macroscopic and microscopic findings at dose sites ([2]; 1 mg/kg dose): No remarkable findings | tolerability of subcutaneous injection ([2]; Rx100 formulation, beagle dogs): not tolerated | microscopic examination of injection site ([2]; injection site A (10 mg/kg), both animals): chronic-active inflammation with necrosis and vascular thrombus formation | effect on body weight or general health ([2]; single escalating SC doses 10 and 1/1.52 mg/kg): no effect | Ames assay, overall result [3]: negative | Genotoxic Effects ([3]; Bacterial Reverse Mutation Assay, plate incorporation 52 ± 4 hours): Genotoxic Effects: None | Revertant Colony Counts (Mean ± SD) ([3]; TA98, with metabolic activation, 1.45 μg/plate): 17 ± 5 ^N | Revertant Colony Counts (Mean ± SD) ([3]; TA98, with metabolic activation, 4.52 μg/plate): 19 ± 3 ^N | Revertant Colony Counts (Mean ± SD) ([3]; TA98, with metabolic activation, 14.5 μg/plate): 16 ± 5 ^N | Revertant Colony Counts (Mean ± SD) ([3]; TA98, with metabolic activation, 45.2 μg/plate): 20 ± 6 ^N | Revertant Colony Counts (Mean ± SD) ([3]; TA98, with metabolic activation, 145 μg/plate): 0 ± 0 ^E | Revertant Colony Counts (Mean ± SD) ([3]; TA98, with metabolic activation, 452 μg/plate): 0 ± 0 ^V | Revertant Colony Counts (Mean ± SD) ([3]; TA98, with metabolic activation, 1450 μg/plate): 0 ± 0 ^A | Revertant Colony Counts (Mean ± SD) ([3]; TA98, with metabolic activation, 4520 μg/plate): 0 ± 0 ^A | Revertant Colony Counts (Mean ± SD) ([3]; TA100, with metabolic activation, 1.45 μg/plate): 114 ± 12 ^N | Revertant Colony Counts (Mean ± SD) ([3]; TA100, with metabolic activation, 4.52 μg/plate): 117 ± 5 ^N | Revertant Colony Counts (Mean ± SD) ([3]; TA100, with metabolic activation, 14.5 μg/plate): 89 ± 14 ^N | Revertant Colony Counts (Mean ± SD) ([3]; TA100, with metabolic activation, 45.2 μg/plate): 26 ± 3 ^E | Revertant Colony Counts (Mean ± SD) ([3]; TA100, with metabolic activation, 145 μg/plate): 39 ± 3 ^M R | Revertant Colony Counts (Mean ± SD) ([3]; TA100, with metabolic activation, 452 μg/plate): 0 ± 0 ^A T | Revertant Colony Counts (Mean ± SD) ([3]; TA100, with metabolic activation, 1450 μg/plate): 0 ± 0 ^M A T | Revertant Colony Counts (Mean ± SD) ([3]; TA100, with metabolic activation, 4520 μg/plate): 0 ± 0 ^A T | Revertant Colony Counts (Mean ± SD) ([3]; TA1535, with metabolic activation, 0.0181 μg/plate): 10 ± 4 ^N M | Revertant Colony Counts (Mean ± SD) ([3]; TA1535, with metabolic activation, 0.0452 μg/plate): 11 ± 2 ^C M N | Revertant Colony Counts (Mean ± SD) ([3]; TA1535, with metabolic activation, 0.145 μg/plate): 9 ± 3 ^N | Revertant Colony Counts (Mean ± SD) ([3]; TA1535, with metabolic activation, 0.452 μg/plate): 13 ± 1 ^N | Revertant Colony Counts (Mean ± SD) ([3]; TA1535, with metabolic activation, 1.45 μg/plate): 11 ± 5 ^N | Revertant Colony Counts (Mean ± SD) ([3]; TA1535, with metabolic activation, 4.52 μg/plate): 9 ± 1 ^N | Revertant Colony Counts (Mean ± SD) ([3]; TA1535, with metabolic activation, 14.5 μg/plate): 11 ± 3 ^N | Revertant Colony Counts (Mean ± SD) ([3]; TA1537, with metabolic activation, 1.45 μg/plate): 9 ± 3 ^N | Revertant Colony Counts (Mean ± SD) ([3]; TA1537, with metabolic activation, 4.52 μg/plate): 7 ± 2 ^N M | Revertant Colony Counts (Mean ± SD) ([3]; TA1537, with metabolic activation, 14.5 μg/plate): 6 ± 5 ^M N | Revertant Colony Counts (Mean ± SD) ([3]; TA1537, with metabolic activation, 45.2 μg/plate): 3 ± 2 ^E | Revertant Colony Counts (Mean ± SD) ([3]; TA1537, with metabolic activation, 145 μg/plate): 0 ± 0 ^R | Revertant Colony Counts (Mean ± SD) ([3]; TA1537, with metabolic activation, 452 μg/plate): 0 ± 0 ^V | Revertant Colony Counts (Mean ± SD) ([3]; TA1537, with metabolic activation, 1450 μg/plate): 0 ± 0 ^V | Revertant Colony Counts (Mean ± SD) ([3]; TA1537, with metabolic activation, 4520 μg/plate): 0 ± 0 ^A | Revertant Colony Counts (Mean ± SD) ([3]; WP2uvrA, with metabolic activation, 1.45 μg/plate): 13 ± 4 ^N | Revertant Colony Counts (Mean ± SD) ([3]; WP2uvrA, with metabolic activation, 4.52 μg/plate): 17 ± 4 ^M N | Revertant Colony Counts (Mean ± SD) ([3]; WP2uvrA, with metabolic activation, 14.5 μg/plate): 19 ± 4 ^N | Revertant Colony Counts (Mean ± SD) ([3]; WP2uvrA, with metabolic activation, 45.2 μg/plate): 12 ± 4 ^N | Revertant Colony Counts (Mean ± SD) ([3]; WP2uvrA, with metabolic activation, 145 μg/plate): 15 ± 4 ^N M | Revertant Colony Counts (Mean ± SD) ([3]; WP2uvrA, with metabolic activation, 452 μg/plate): 15 ± 5 ^N | Revertant Colony Counts (Mean ± SD) ([3]; WP2uvrA, with metabolic activation, 1450 μg/plate): 9 ± 3 ^N | Revertant Colony Counts (Mean ± SD) ([3]; WP2uvrA, with metabolic activation, 4520 μg/plate): 0 ± 0 ^E | Revertant Colony Counts (Mean ± SD) ([3]; Without Metabolic Activation, TA98, 0.0181 μg/plate): 15 ± 3 ^N | Revertant Colony Counts (Mean ± SD) ([3]; Without Metabolic Activation, TA98, 0.0452 μg/plate): 15 ± 5 ^N M | Revertant Colony Counts (Mean ± SD) ([3]; Without Metabolic Activation, TA98, 0.145 μg/plate): 13 ± 2 ^N M | Revertant Colony Counts (Mean ± SD) ([3]; Without Metabolic Activation, TA98, 0.452 μg/plate): 13 ± 5 ^N | Revertant Colony Counts (Mean ± SD) ([3]; Without Metabolic Activation, TA98, 1.45 μg/plate): 14 ± 2 ^N | Revertant Colony Counts (Mean ± SD) ([3]; Without Metabolic Activation, TA98, 4.52 μg/plate): 12 ± 4 ^N | Revertant Colony Counts (Mean ± SD) ([3]; Without Metabolic Activation, TA98, 14.5 μg/plate): 12 ± 3 ^N | Revertant Colony Counts (Mean ± SD) ([3]; Without Metabolic Activation, TA100, 0.0181 μg/plate): 92 ± 8 ^N | Revertant Colony Counts (Mean ± SD) ([3]; Without Metabolic Activation, TA100, 0.0452 μg/plate): 93 ± 16 ^N | Revertant Colony Counts (Mean ± SD) ([3]; Without Metabolic Activation, TA100, 0.145 μg/plate): 88 ± 11 ^N | Revertant Colony Counts (Mean ± SD) ([3]; Without Metabolic Activation, TA100, 0.452 μg/plate): 86 ± 13 ^N | Revertant Colony Counts (Mean ± SD) ([3]; Without Metabolic Activation, TA100, 1.45 μg/plate): 84 ± 16 ^N | Revertant Colony Counts (Mean ± SD) ([3]; Without Metabolic Activation, TA100, 4.52 μg/plate): 53 ± 7 ^R | Revertant Colony Counts (Mean ± SD) ([3]; Without Metabolic Activation, TA100, 14.5 μg/plate): 51 ± 4 ^M R | Revertant Colony Counts (Mean ± SD) ([3]; Without Metabolic Activation, TA1535, 0.0181 μg/plate): 15 ± 4 ^N | Revertant Colony Counts (Mean ± SD) ([3]; Without Metabolic Activation, TA1535, 0.0452 μg/plate): 16 ± 2 ^N | Revertant Colony Counts (Mean ± SD) ([3]; Without Metabolic Activation, TA1535, 0.145 μg/plate): 12 ± 1 ^N | Revertant Colony Counts (Mean ± SD) ([3]; Without Metabolic Activation, TA1535, 0.452 μg/plate): 11 ± 3 ^N | Revertant Colony Counts (Mean ± SD) ([3]; Without Metabolic Activation, TA1535, 1.45 μg/plate): 11 ± 2 ^N | Revertant Colony Counts (Mean ± SD) ([3]; Without Metabolic Activation, TA1535, 4.52 μg/plate): 8 ± 3 ^N | Revertant Colony Counts (Mean ± SD) ([3]; Without Metabolic Activation, TA1535, 14.5 μg/plate): 4 ± 1 ^R M | Revertant Colony Counts (Mean ± SD) ([3]; Without Metabolic Activation, TA1537, 0.0181 μg/plate): 6 ± 4 ^N | Revertant Colony Counts (Mean ± SD) ([3]; Without Metabolic Activation, TA1537, 0.0452 μg/plate): 6 ± 3 ^N M | Revertant Colony Counts (Mean ± SD) ([3]; Without Metabolic Activation, TA1537, 0.145 μg/plate): 5 ± 0 ^M N | Revertant Colony Counts (Mean ± SD) ([3]; Without Metabolic Activation, TA1537, 0.452 μg/plate): 6 ± 3 ^M N | Revertant Colony Counts (Mean ± SD) ([3]; Without Metabolic Activation, TA1537, 1.45 μg/plate): 5 ± 2 ^N | Revertant Colony Counts (Mean ± SD) ([3]; Without Metabolic Activation, TA1537, 4.52 μg/plate): 3 ± 4 ^N | Revertant Colony Counts (Mean ± SD) ([3]; Without Metabolic Activation, TA1537, 14.5 μg/plate): 1 ± 1 ^R M | Revertant Colony Counts (Mean ± SD) ([3]; Without Metabolic Activation, WP2uvrA, 1.45 μg/plate): 12 ± 5 ^N | Revertant Colony Counts (Mean ± SD) ([3]; Without Metabolic Activation, WP2uvrA, 4.52 μg/plate): 13 ± 3 ^M N | Revertant Colony Counts (Mean ± SD) ([3]; Without Metabolic Activation, WP2uvrA, 14.5 μg/plate): 17 ± 6 ^N | Revertant Colony Counts (Mean ± SD) ([3]; Without Metabolic Activation, WP2uvrA, 45.2 μg/plate): 14 ± 4 ^N | Revertant Colony Counts (Mean ± SD) ([3]; Without Metabolic Activation, WP2uvrA, 145 μg/plate): 15 ± 3 ^N | Revertant Colony Counts (Mean ± SD) ([3]; Without Metabolic Activation, WP2uvrA, 452 μg/plate): 12 ± 2 ^N | Revertant Colony Counts (Mean ± SD) ([3]; Without Metabolic Activation, WP2uvrA, 1450 μg/plate): 8 ± 3 ^E | Revertant Colony Counts (Mean ± SD) ([3]; Without Metabolic Activation, WP2uvrA, 4520 μg/plate): 0 ± 0 ^E | revertant colonies ([3]; any strain, any concentration (1.6 to 5000 μg/plate; 0.160 to 16 μg/plate), with or without metabolic activation): No increase in revertant colonies | Mean % MNPC (±SD) Male ([4]; harvest 24 hour): 0.09% | Mean Ratio PCE:NCE (±SD) Male ([4]; harvest 24 hour): 0.52 | Mean % MNPC (±SD) Male ([4]; harvest 48 hour): 0.08%
